Results on two molecules are retold here after paper doi:10.1101/2025.11.20.689572v1 (biorxiv, 2025).

Structures are written as SMILES.

In test [1] the target is T1, H4 (Homo sapiens, UniProt Q9H3N8).
T1 construct: gene HRH4; full-length receptor; HEK293 cell membranes
As to the kind of experiment: competitive radioligand binding, HEK293 membranes. The source says:
competitive radioligand binding, HEK293 membranes on H4

In test [2] the target is HTR2A (Homo sapiens, UniProt P28223). As to the kind of experiment: cell-based. Set-up: Fluo-4 Direct calcium mobilization on FLIPR-Tetra. The note with it: HEK293, read-out: N-Desmethyl Xanomeline; Assay=Calcium; agonist mode, % of control agonist.
The target of test [3] is T2, M2 (Homo sapiens, UniProt P08172).
T2 construct: gene CHRM2; full-length receptor; HEK293 with TRUPATH sensors (function)
T2 sequence (P08172 1-466): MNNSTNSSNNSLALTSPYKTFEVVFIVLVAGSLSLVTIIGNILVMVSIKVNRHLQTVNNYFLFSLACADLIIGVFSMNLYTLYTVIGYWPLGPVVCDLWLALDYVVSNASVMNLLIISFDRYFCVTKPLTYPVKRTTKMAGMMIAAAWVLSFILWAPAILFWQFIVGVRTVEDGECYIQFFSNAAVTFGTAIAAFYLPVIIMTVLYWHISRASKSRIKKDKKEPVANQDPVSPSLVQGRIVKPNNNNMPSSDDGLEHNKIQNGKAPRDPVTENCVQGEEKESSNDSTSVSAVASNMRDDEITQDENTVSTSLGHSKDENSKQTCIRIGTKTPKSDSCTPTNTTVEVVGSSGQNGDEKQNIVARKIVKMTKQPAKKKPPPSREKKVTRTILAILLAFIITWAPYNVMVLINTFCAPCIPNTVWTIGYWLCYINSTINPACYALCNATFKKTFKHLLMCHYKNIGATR
As to the kind of experiment: competitive radioligand binding, HEK293 membranes.

Test [4] deals with SSTR4 (Homo sapiens, UniProt P31391). As to the kind of experiment: cell-based. More on the design: PRESTO-Tango beta-arrestin2 recruitment, luciferase luminescence, concentration-response. As to conditions: HTLA, read-out: N-Desmethyl Xanomeline; Assay=Tango; agonist mode, % of control agonist. As to the method:
(§1) Off-target agonism across the human GPCRome was profiled using PRESTO-Tango, following established protocols with minor adaptations [10]–[12]. […] After ~6 h recovery, cells were transfected with 20 ng plasmid DNA per well and incubated overnight. The next day, 10 µL of test compound (prepared in DMEM + 1% dFBS) was added, and plates were incubated overnight. Media and compounds were removed, and 20 µL per well of Bright-Glo luciferase reagent diluted in assay buffer (Hank’s Balanced Salt Solution (HBSS), 20 mM HEPES, pH 7.4) was added. After 20 min at room temperature (dark), luminescence was recorded. Each plate included the dopamine D2 receptor (DRD2) stimulated with 100 nM quinpirole as a positive control. For the GPCRome screen, each receptor was tested in quadruplicate at 0 and 10 µM compound (final). Responses were expressed as fold change relative to the basal (0 µM) condition. Follow-up concentration–response assays were performed under identical conditions except that serial dilutions of compounds (maximum ~30 µM, final) were added to generate full concentration–response curves.

In test [5] the target is T3, M5 (Homo sapiens, UniProt P08912).
T3 construct: gene CHRM5; full-length receptor; HEK293 with TRUPATH sensors (function)
T3 sequence (P08912 1-532): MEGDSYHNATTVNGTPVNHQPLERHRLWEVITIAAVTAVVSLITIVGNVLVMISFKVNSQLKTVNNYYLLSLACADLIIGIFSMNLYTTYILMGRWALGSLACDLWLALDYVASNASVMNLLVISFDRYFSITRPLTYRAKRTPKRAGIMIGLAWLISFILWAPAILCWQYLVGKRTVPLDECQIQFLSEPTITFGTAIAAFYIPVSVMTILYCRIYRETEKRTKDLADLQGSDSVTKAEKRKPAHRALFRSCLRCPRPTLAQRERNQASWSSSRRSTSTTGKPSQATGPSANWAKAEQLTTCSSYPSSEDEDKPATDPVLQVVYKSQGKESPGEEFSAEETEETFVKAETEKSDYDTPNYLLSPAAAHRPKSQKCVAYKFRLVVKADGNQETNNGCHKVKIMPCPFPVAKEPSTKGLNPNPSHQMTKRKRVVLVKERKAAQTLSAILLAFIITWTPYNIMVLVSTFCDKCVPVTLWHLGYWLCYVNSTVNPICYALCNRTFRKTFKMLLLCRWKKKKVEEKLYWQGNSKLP
As to the kind of experiment: competitive radioligand binding, HEK293 membranes.

Test [6] deals with T4, DRD4 (Homo sapiens, UniProt P21917).
T4 sequence (P21917 1-419): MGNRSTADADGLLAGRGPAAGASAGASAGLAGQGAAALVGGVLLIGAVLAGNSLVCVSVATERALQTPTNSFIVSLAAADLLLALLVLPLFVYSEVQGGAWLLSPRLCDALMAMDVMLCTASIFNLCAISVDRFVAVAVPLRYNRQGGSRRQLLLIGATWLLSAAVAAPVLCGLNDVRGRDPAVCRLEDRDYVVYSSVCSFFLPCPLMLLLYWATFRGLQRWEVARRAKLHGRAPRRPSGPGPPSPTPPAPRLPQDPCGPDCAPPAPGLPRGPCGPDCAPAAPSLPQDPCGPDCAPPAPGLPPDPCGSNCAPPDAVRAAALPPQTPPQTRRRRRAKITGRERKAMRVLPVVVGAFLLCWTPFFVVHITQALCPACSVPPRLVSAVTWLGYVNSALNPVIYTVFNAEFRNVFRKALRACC
As to the kind of experiment: cell-based. More on the design: PRESTO-Tango beta-arrestin2 recruitment, luciferase luminescence, concentration-response. As to conditions: HTLA, read-out: Xanomeline; Assay=Tango; agonist mode, % of control agonist. As to the method: as §1

The target of test [7] is CHRM3 (Homo sapiens, UniProt P20309). As to the kind of experiment: cell-based. Set-up: species or system HEK293; TRUPATH BRET2 G-protein dissociation; antagonist mode against agonist EC80. The note with it: Xanomeline, Assay=Gq; agonist mode.
Test [8] deals with T5, D1 (Homo sapiens, UniProt P21728).
T5 construct: gene DRD1; full-length receptor; HEK293 cell membranes
As to the kind of experiment: competitive radioligand binding, HEK293 membranes. From the text:
competitive radioligand binding, HEK293 membranes on D1

Chain of HTR2A (P28223 whole entry): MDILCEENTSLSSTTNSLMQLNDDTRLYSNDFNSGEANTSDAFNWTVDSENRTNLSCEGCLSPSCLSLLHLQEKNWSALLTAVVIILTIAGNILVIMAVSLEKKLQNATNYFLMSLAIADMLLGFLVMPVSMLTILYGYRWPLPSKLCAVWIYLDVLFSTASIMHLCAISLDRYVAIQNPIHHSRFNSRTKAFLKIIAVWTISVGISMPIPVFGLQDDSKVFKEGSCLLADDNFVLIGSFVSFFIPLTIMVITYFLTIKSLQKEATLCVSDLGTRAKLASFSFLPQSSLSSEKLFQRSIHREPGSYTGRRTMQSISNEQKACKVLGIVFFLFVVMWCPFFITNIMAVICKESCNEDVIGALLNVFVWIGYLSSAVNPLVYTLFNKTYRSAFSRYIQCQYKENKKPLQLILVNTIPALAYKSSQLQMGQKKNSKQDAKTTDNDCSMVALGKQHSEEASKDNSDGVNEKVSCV
T1 sequence (Q9H3N8 whole entry): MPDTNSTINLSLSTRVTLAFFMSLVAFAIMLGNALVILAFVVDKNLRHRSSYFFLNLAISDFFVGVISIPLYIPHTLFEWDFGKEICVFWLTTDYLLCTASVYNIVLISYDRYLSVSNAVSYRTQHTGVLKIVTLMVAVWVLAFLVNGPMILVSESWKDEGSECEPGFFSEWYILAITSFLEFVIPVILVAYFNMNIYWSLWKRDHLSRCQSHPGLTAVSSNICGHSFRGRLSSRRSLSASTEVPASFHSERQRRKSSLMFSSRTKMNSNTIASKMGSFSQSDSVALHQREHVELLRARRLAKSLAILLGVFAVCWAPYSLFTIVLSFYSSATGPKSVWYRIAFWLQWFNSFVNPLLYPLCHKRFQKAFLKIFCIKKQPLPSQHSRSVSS
Chain of CHRM3 (P20309 whole entry): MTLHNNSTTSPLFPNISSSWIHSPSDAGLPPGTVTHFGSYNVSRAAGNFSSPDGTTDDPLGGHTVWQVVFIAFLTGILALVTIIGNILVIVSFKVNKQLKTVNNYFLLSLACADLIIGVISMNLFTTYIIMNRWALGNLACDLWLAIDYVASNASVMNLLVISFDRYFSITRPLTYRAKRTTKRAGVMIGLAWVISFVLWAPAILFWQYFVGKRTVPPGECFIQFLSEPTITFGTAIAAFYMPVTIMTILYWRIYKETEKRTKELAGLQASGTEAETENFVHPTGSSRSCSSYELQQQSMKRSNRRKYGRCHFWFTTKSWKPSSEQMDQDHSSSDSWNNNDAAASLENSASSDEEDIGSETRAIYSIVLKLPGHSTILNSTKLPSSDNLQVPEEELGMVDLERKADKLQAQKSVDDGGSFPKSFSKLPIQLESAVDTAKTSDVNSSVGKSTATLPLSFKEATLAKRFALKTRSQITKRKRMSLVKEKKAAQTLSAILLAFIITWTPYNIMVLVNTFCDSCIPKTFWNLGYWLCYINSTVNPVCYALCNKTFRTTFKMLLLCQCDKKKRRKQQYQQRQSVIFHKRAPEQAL
Chain of SSTR4 (P31391 whole entry): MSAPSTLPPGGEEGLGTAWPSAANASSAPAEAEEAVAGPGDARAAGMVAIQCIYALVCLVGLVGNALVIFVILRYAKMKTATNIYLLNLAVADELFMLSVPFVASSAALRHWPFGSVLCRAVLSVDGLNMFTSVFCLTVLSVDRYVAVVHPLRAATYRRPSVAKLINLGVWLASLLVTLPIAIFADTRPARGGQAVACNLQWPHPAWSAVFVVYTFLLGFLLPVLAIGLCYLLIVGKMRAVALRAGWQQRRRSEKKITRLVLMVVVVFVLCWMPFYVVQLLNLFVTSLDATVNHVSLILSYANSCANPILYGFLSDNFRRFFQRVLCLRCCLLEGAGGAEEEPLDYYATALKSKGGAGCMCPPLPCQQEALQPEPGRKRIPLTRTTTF
T5 sequence (P21728 whole entry): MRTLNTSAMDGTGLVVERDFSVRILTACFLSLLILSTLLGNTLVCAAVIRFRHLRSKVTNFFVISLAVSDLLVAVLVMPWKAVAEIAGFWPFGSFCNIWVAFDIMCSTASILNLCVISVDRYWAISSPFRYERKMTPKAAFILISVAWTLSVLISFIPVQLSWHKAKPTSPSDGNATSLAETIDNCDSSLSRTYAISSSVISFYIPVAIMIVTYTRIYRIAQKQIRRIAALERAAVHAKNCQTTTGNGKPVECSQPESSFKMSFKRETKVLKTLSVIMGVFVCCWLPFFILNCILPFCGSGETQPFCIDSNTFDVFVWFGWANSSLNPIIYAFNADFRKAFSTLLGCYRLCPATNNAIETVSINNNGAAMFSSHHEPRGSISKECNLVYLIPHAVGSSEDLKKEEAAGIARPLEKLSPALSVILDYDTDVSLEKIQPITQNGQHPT

For `CCCCCCOc1nsnc1C1=CCCNC1` [N-desmethylxanomeline], the inhibition constant Ki – broadly, a dissociation constant, usually derived from enzyme kinetics or from competition with a known ligand – is 363 nM in test [1], 1450 nM in test [3] and 93.3 nM in test [5]. The Emax in test [2] was found to be 63.4%; in test [4] it was 2.88%.
As for `CCCCCCOc1nsnc1C1=CCCN(C)C1` [Xanomeline], the Emax in test [6] was 11.4%. In addition, in test [7], the midpoint of the response, the EC50, lay at 53.4 nM. Moreover, the Ki in test [8] was 1580 nM.
